Results: paper PMC6689975, “Novel Cell Wall Antifungals Reveal a Special Synergistic Activity in pbr1 Mutants Resistant to the Glucan Synthesis Antifungals Papulacandins and Echinocandins” (Frontiers in Microbiology, 2019)
≈ marks a conversion by molar mass, not a printed value. Like-named read-outs stand apart in the source and are kept apart here.

Columns and labels:
Assay in all cases: microbe, parasite or virus in culture
C. albicans wild-type [1] = system: C. albicans wild-type; set-up: species or system whole yeast cells; macro tube broth dilution MIC in YEPD at 30 C, visual clearness of medium; details: Candida albicans, 48 h, read-out: MIC
Description: (§1) Standard YEPD (Yeast Extract, Peptone, Dextrose) ([Sherman, 1990]), YEPD+S (YEPD with 1.2M sorbitol), YES (Yeast Extract, Dextrose and Supplements of Adenine, Histidine, Leucine, Uracil and Lysine) ([Alfa et al., 1993]) and YES+S (YES with 1.2 M sorbitol) ([Ribas et al., 1991]; [Ishiguro et al., 1997]), media were used for determination of MIC values of the tested compounds. A stock solution of 10 mg/ml of each tested compounds was prepared in DMSO and serial dilutions in DMSO were prepared. The final concentration of DMSO was 2% in the YEPD medium. […] The serial dilutions of compounds were dispensed into test tubes with 1 ml of YEPD or YEPD+S to make final concentrations of 200, 100, 50, 25, 12.5, 6.26, 3.125, 1.6, 0.8 and 0.4 μg/ml. The tested yeast strains were previously grown in YEPD, YEPD+S, YES or YES+S agar plates at 30°C for 48 h. For inoculation of YEPD or YEPD+S macro test tubes a suspension of tested fungus was produced with 10^5 cfu/ml (cfu - colony forming unit). 10 μl of suspension was used for inoculation of each tube. After 48 h incubation at 30°C the tubes were checked. The MIC value is the lowest concentration of the tested compound that could inhibit the fungal growth and the medium remained clear. From each tube 10 μl culture was plated on YEPD agar medium to check the contamination. The MIC tests were carried out in three parallels. The screening of the first generation of isochromanones was carried out in YEPD and YEPD+S media (1E-16E). The fungal strains analyzed are: C. albicans wild-type ATCC 26555, SC5314 and ATCC 90028, S. cerevisiae wild-type CVX12-3A and pbr1-1 mutant, and S. pombe wild-type (972h^–), pbr1-8 mutant and pbr1-6 mutant. The bold numbers in Tables 4–6 indicate the more efficient compounds. […] The weak or moderate efficacy against the C. albicans wild-type strains was observed by some substances (3E, 4Z, 5Z, 10E, 15, and 16E). The efficiency toward the S. pombe pbr1-6 mutant strain was the highest inhibitory activity, except 7E, 11E, 12 and 14E. […] As regards the other S. pombe pbr1-8 mutant strain, the antifungal activity of the tested compounds was slightly lower, but the substances with the best activity are partly identical to the best compounds mentioned with pbr1-6, (i.e., 1E, 3E, 4Z, 5Z).

C. albicans wild-type [2] = system: C. albicans wild-type; set-up: species or system whole yeast cells; macro tube broth dilution MIC in YEPD at 30 C, visual clearness of medium; details: Candida albicans, 48 h, read-out: MIC; remark: listed apart in the source
Description: as §1

[3] = system: T1, S. cerevisiae wild-type CVX12-3A; set-up: species or system whole yeast cells; macro tube broth dilution MIC in YEPD at 30 C, visual clearness of medium; details: Saccharomyces cerevisiae, 48 h, read-out: MIC
T1 construct: CVX12-3A
Description: as §1

[4] = system: T2, S. pombe wild-type 972 h-; set-up: species or system whole yeast cells; macro tube broth dilution MIC in YEPD at 30 C, visual clearness of medium; details: Schizosaccharomyces pombe, 48 h, read-out: MIC
T2 construct: 972 h-
Description: as §1

C. albicans wild-type [5] = system: C. albicans wild-type; set-up: species or system whole yeast cells; macro tube broth dilution MIC in YEPD at 30 C, visual clearness of medium; details: Candida albicans, 48 h, read-out: MIC; remark: listed apart in the source
Description: as §1

[6] = system: T1, S. cerevisiae wild-type CVX12-3A; set-up: species or system whole yeast cells; micro-culture broth dilution MIC in YES at 30 C, turbidity, complete growth inhibition; details: Saccharomyces cerevisiae, read-out: MIC
Description: (§2) Standard YEPD (Yeast Extract, Peptone, Dextrose) ([Sherman, 1990]), YEPD+S (YEPD with 1.2M sorbitol), YES (Yeast Extract, Dextrose and Supplements of Adenine, Histidine, Leucine, Uracil and Lysine) ([Alfa et al., 1993]) and YES+S (YES with 1.2 M sorbitol) ([Ribas et al., 1991]; [Ishiguro et al., 1997]), media were used for determination of MIC values of the tested compounds. A stock solution of 10 mg/ml of each tested compounds was prepared in DMSO and serial dilutions in DMSO were prepared. The final concentration of DMSO was 2% in the YEPD medium. […] The serial dilutions of compounds were dispensed into test tubes with 1 ml of YEPD or YEPD+S to make final concentrations of 200, 100, 50, 25, 12.5, 6.26, 3.125, 1.6, 0.8 and 0.4 μg/ml. The tested yeast strains were previously grown in YEPD, YEPD+S, YES or YES+S agar plates at 30°C for 48 h. Micro-culture assays of large numbers of samples were analyzed as described) ([Martins et al., 2011]). Essentially early log-phase cells were grown in YEPD, YEPD+S, YES or YES+S (1.2 M sorbitol) medium at 30°C, and diluted to cell density of 4 X 10^6 cells/ml in YEPD, YEPD+S, YES or YES+S medium and aliquots of 100 μl were dispensed into each small test tube (3 ml test tube size). Then, another 100 μl of YEPD, YEPD+S, YES or YES+S with the corresponding dilution of each compound at 2X concentration (4% DMSO) was added. The final volume was 200 μl, with the cells diluted to of 2 X 10^6 cells/ml and each compound diluted to 1X final concentration, containing increasing concentrations of antifungal (0, 1, 2, 5, 10, 20, 50, 100 and 200 μg/ml) or an equivalent volume of solvent (2% DMSO). The cells were grown at 30°C in an orbital roller and turbidity was analyzed after 24 and 48 h of incubation. The MIC was determined as the minimal concentration of tested compound that produced complete cell growth inhibition and kept the medium clear. The MIC values were calculated from at least three independent experiments. Next, the first generation of isochromanones (1E-16E) was also screened in YES medium (Table 5) and exerted a weaker antifungal potency than in YEPD medium and also than the second family of isochromanones in YES medium (17E-30E) (Table 6). The strains are partly different from the previously mentioned ones (Tables 5, 6) analyzing two wild type C. albicans strains because they behaved similarly in YEPD. It is remarkable that there was no effect against either the C. albicans, the S. cerevisiae, or the S. pombe wild-type strains, except with 30E.

[7] = system: T2, S. pombe wild-type 972 h-; set-up: species or system whole yeast cells; micro-culture broth dilution MIC in YES at 30 C, turbidity, complete growth inhibition; details: Schizosaccharomyces pombe, read-out: MIC
Description: as §2

C. albicans wild-type [8] = system: C. albicans wild-type; set-up: species or system whole yeast cells; micro-culture broth dilution MIC in YES at 30 C, turbidity, complete growth inhibition; details: Candida albicans, read-out: MIC
Description: as §2

C. albicans wild-type [9] = system: C. albicans wild-type; set-up: species or system whole yeast cells; micro-culture broth dilution MIC in YES at 30 C, turbidity, complete growth inhibition; details: Candida albicans, read-out: MIC; remark: listed apart in the source
Description: as §2

Compound | MIC (C. albicans wild-type [1]) [µg/mL] | MIC (C. albicans wild-type [2]) [µg/mL] | MIC [3] [µg/mL] | MIC [4] [µg/mL] | MIC (C. albicans wild-type [5]) [µg/mL] | MIC [6] [µg/mL] | MIC [7] [µg/mL] | MIC (C. albicans wild-type [8]) [µg/mL] | MIC (C. albicans wild-type [9]) [µg/mL]
O=C1OCc2ccccc2/C1=C\c1ccccc1 [1E] | 200 (≈ 846 µM) | 200 (≈ 846 µM) | 100 (≈ 423 µM) | 25 (≈ 106 µM) | 200 (≈ 846 µM) | > 200 | > 200 | > 200 | 
O=C1OCc2ccccc2/C1=C/c1ccccc1 [1Z] | > 200 | 200 (≈ 846 µM) | 100 (≈ 423 µM) | 50 (≈ 212 µM) | > 200 | > 200 | > 200 | > 200 | 
O=C1OCc2ccccc2/C1=C\c1ccc(C(=O)O)cc1 [2E] | 200 (≈ 714 µM) | 200 (≈ 714 µM) | 100 (≈ 357 µM) | 50 (≈ 178 µM) | 200 (≈ 714 µM) | > 200 | > 200 | > 200 | 
O=C1OCc2ccccc2/C1=C\c1cccnc1 [3E] | 100 (≈ 421 µM) | 50 (≈ 211 µM) | 50 (≈ 211 µM) | 25 (≈ 105 µM) | 100 (≈ 421 µM) | 200 (≈ 843 µM) | 200 (≈ 843 µM) | > 200 | 
Cn1cccc1/C=C1/C(=O)OCc2ccccc21 [4E] | 200 (≈ 836 µM) | 200 (≈ 836 µM) | 100 (≈ 418 µM) | 50 (≈ 209 µM) | 200 (≈ 836 µM) | > 200 | > 200 | > 200 | 
Cn1cccc1/C=C1\C(=O)OCc2ccccc21 [4Z] | 50 (≈ 209 µM) | 12.5 (≈ 52.2 µM) | 12.5 (≈ 52.2 µM) | 25 (≈ 104 µM) | 25 (≈ 104 µM) | > 200 | > 200 | > 200 | 
O=C1OCc2ccccc2/C1=C/c1ccc[nH]1 [5Z] | 100 (≈ 444 µM) | 200 (≈ 888 µM) | 100 (≈ 444 µM) | 25 (≈ 111 µM) | 100 (≈ 444 µM) | > 200 | > 200 | > 200 | 
O=C1OCc2ccccc2/C1=C\c1ccccc1Cl [8E] | > 200 | 200 (≈ 739 µM) | 100 (≈ 369 µM) | 50 (≈ 185 µM) | > 200 | > 200 | > 200 | > 200 | 
COc1cccc(/C=C2/C(=O)OCc3ccccc32)c1OC [9E] | 100 (≈ 337 µM) | 100 (≈ 337 µM) | 100 (≈ 337 µM) | 50 (≈ 169 µM) | 100 (≈ 337 µM) | > 200 | > 200 | > 200 | 
O=C1OCc2ccccc2/C1=C\c1ccccc1[N+](=O)[O-] [11E] | > 200 | > 200 | 200 (≈ 711 µM) | 100 (≈ 356 µM) | > 200 | > 200 | > 200 | > 200 | 
O=C1OCc2ccccc2/C1=C\c1ccc([N+](=O)[O-])cc1 [17E, E-4-[(4′-Nitrophenyl)Methylene]-3-Isochromanone] |  |  |  |  |  | 200 (≈ 711 µM) | > 200 | > 200 | > 200
Cc1cc(C)c(/C=C2/C(=O)OCc3ccccc32)c(C)c1 [18E] |  |  |  |  |  | > 200 | > 200 | > 200 | > 200
Cc1ccccc1/C=C1/C(=O)OCc2ccccc21 [20E] |  |  |  |  |  | > 200 | > 200 | > 200 | > 200
COc1cccc(/C=C2/C(=O)OCc3ccccc32)c1 [22E] |  |  |  |  |  | > 200 | > 200 | > 200 | > 200
O=C1OCc2ccccc2/C1=C\c1ccc(Cl)cc1 [23E] |  |  |  |  |  | > 200 | > 200 | > 200 | > 200
O=C1OCc2ccccc2/C1=C\c1cccc([N+](=O)[O-])c1 [24E] |  |  |  |  |  | > 200 | > 200 | > 200 | > 200
O=C1OCc2ccccc2/C1=C/c1cccc([N+](=O)[O-])c1 [24Z] |  |  |  |  |  | > 200 | > 200 | > 200 | > 200
COc1cc(/C=C2/C(=O)OCc3ccccc32)cc(OC)c1OC [25E] |  |  |  |  |  | > 200 | > 200 | > 200 | > 200
COc1ccc(/C=C2/C(=O)OCc3ccccc32)cc1OC [26E, E-4-[(3′,4′-Dimethoxyphenyl)Methylene]-3-Isochromanone] |  |  |  |  |  | > 200 | > 200 | > 200 | > 200
O=C1OCc2ccccc2/C1=C\c1cccc(Cl)c1 [28E, E-4-[(3′-Chlorophenyl)Methylene]-3-Isochromanone] |  |  |  |  |  | > 200 | > 200 | > 200 | > 200
O=C1OCc2ccccc2/C1=C/c1cccc(Cl)c1 [28Z, Z-4-[(3′-chlorophenyl)methylene]-3-isochromanone] |  |  |  |  |  | > 200 | > 200 | > 200 | > 200
O=C1OCc2ccccc2/C1=C\c1ccc(O)cc1 [29E, E-4-[(4′-Hydroxyphenyl)Methylene]-3-Isochromanone] |  |  |  |  |  | > 200 | > 200 | > 200 | > 200
COc1cc(/C=C2/C(=O)OCc3ccccc32)ccc1O [30E, E-4-[(4′-Hydroxy-3′-Methoxyphenyl)Methylene]-3-Isochromanone] |  |  |  |  |  | 150 (≈ 531 µM) | 150 (≈ 531 µM) | > 200 | > 200
